Measured values: ChEMBL document CHEMBL1151791, “Derivatives of 1,4-bis(3-hydroxycarbonyl-4-hydroxyl)styrylbenzene as PTP1B inhibitors with hypoglycemic activity” (Bioorg Med Chem, 2008)
Active and inactive are the calls of the source. No cut-off for these calls is given here.

How the values were obtained:
[1] = target: T1, Tyrosine-protein phosphatase non-receptor type 1 (Homo sapiens, UniProt P18031); test: Inhibition of PTP1B
T1 sequence (P18031 whole entry): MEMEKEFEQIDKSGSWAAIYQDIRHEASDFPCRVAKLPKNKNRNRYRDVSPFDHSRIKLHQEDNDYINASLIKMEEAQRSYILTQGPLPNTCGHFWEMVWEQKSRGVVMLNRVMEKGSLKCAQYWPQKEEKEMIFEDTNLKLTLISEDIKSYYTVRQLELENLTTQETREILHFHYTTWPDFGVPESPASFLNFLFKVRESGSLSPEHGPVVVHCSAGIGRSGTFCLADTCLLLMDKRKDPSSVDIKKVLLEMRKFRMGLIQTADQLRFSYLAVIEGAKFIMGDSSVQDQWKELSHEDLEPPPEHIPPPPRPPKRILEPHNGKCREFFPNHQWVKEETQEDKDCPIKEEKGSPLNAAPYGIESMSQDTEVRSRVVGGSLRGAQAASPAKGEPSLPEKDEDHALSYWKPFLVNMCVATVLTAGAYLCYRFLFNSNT

[2] = target: T2, Tyrosine-protein phosphatase non-receptor type 2 (Homo sapiens, UniProt P17706); test: Inhibition of TC-PTP
T2 sequence (P17706 whole entry): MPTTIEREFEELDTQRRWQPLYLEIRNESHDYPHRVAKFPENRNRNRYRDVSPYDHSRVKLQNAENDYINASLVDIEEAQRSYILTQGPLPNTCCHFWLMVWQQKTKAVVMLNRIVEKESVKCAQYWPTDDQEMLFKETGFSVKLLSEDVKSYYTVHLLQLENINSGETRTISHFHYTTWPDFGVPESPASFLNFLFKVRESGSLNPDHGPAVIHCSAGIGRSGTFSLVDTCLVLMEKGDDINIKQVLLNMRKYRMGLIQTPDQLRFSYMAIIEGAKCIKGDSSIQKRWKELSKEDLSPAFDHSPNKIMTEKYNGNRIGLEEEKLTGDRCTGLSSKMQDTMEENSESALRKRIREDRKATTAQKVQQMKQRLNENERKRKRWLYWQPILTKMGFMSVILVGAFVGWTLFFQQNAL

[3] = Inhibition of PTP LAR-D1
[4] = target: Tyrosine-protein phosphatase non-receptor type 6 (Homo sapiens, UniProt P29350); test: Inhibition of PTP SHP1
Tyrosine-protein phosphatase non-receptor type 6, sequence (P29350 whole entry): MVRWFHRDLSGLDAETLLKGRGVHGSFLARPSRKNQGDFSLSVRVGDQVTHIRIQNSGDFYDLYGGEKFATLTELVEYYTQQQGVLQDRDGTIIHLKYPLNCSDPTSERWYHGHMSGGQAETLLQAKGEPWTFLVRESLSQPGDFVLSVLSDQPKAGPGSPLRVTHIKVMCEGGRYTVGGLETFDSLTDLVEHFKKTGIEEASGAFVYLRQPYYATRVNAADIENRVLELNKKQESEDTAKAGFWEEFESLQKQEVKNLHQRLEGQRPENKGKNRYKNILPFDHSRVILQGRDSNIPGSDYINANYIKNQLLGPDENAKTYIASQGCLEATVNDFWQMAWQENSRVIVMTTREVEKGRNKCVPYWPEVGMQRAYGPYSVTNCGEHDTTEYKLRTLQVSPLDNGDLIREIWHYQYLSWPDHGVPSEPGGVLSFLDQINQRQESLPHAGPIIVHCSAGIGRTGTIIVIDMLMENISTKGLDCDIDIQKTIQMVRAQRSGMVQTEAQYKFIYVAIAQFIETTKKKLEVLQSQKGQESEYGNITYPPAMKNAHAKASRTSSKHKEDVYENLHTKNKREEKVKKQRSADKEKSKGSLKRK

[5] = Inhibition of PTP YOP
[6] = Inhibition of YPTP1
Mus musculus [7] = test: Toxicity in liver of high fat diet fed C57BL/6J Jms Slc mouse at 160 mg/day/kg for 4 weeks administered with diet; format: organism-based; conditions: in vivo, po, 672 h
Mus musculus [8] = test: Toxicity in kidney of high fat diet fed C57BL/6J Jms Slc mouse at 160 mg/day/kg for 4 weeks administered with diet; format: organism-based; conditions: in vivo, po, 672 h
Mus musculus [9] = test: Toxicity in lungs of high fat diet fed mouse C57BL/6J Jms Slc at 160 mg/day/kg for 4 weeks administered with diet; format: organism-based, Lung; conditions: in vivo, po, 672 h
Mus musculus [10] = test: Reduction in blood glucose level in high fat diet fed C57BL/6J Jms Slc mouse at 160 mg/day/kg administered with diet measured after 27 days; format: functional, organism-based
Mus musculus [11] = test: Normalization of blood glucose level in high fat diet fed C57BL/6J Jms Slc mouse at 160 mg/day/kg administered with diet; format: functional, organism-based

| Compound | IC50 [1] [µM] | IC50 [2] [µM] | IC50 [3] [µM] | IC50 [4] [µM] | IC50 [5] [µM] | IC50 [6] [µM] | Activity (Mus musculus [7]) | Activity (Mus musculus [8]) | Activity (Mus musculus [9]) | Activity (Mus musculus [10]) | Activity (Mus musculus [11]) |
| --- | --- | --- | --- | --- | --- | --- | --- | --- | --- | --- | --- |
| COc1cc(/C=C/c2cc(C(=O)O)c(O)c(-c3ccco3)c2)ccc1/C=C/c1cc(C(=O)O)c(O)c(-c2ccco2)c1 | 4 | 11 | 162 | 6 | 5 | 10 | – | – | – | – | – |
| O=C(O)c1cc(/C=C/c2ccccc2)cc(-c2ccccc2)c1O | 13 | 173 | > 1000 | 78 | 44 | 59 | – | – | – | – | – |
| O=C(O)c1cc(/C=C/c2ccc(/C=C/c3cc(Br)c(O)c(C(=O)O)c3)cc2)cc(Br)c1O | 3 | 37 | > 300 | 15 | 10 | 13 | Non-toxic | Non-toxic | Non-toxic | Active | Active |
| COc1c(C(=O)O)cc(/C=C/c2ccc(C(=O)O)c(O)c2)cc1-c1ccco1 | 194 | – | – | – | – | – | – | – | – | – | – |
| O=C(O)c1cc(/C=C/c2ccc(/C=C/c3ccc(O)c(C(=O)O)c3)cc2)ccc1O | 5 | 27 | 413 | 19 | 13 | 20 | – | – | – | – | – |
| O=C(O)c1cc(/C=C/c2cc(C(=O)O)c(O)c(-c3ccccc3)c2)ccc1O | 125 | – | – | – | – | – | – | – | – | – | – |

Further lines, with some results ahead:

| IC50 [1] [µM] | IC50 [2] [µM] | IC50 [3] [µM] | IC50 [4] [µM] | IC50 [5] [µM] | IC50 [6] [µM] | Compound | Activity (Mus musculus [7]) | Activity (Mus musculus [8]) | Activity (Mus musculus [9]) | Activity (Mus musculus [10]) | Activity (Mus musculus [11]) |
| --- | --- | --- | --- | --- | --- | --- | --- | --- | --- | --- | --- |
| 0.53 | 8 | > 200 | 6 | 5 | 7 | O=C(O)c1cc(/C=C/c2ccc(/C=C/c3cc(C(=O)O)c(O)c(-c4ccco4)c3)cc2)cc(-c2ccco2)c1O | – | – | – | – | – |
| 6 | 32 | 420 | 10 | 12 | 21 | COc1cc(/C=C/c2cc(Br)c(O)c(C(=O)O)c2)ccc1/C=C/c1cc(Br)c(O)c(C(=O)O)c1 | – | – | – | – | – |
| 64 | – | – | – | – | – | O=C(O)c1ccc(/C=C/c2cc(Br)c(O)c(C(=O)O)c2)cc1O | – | – | – | – | – |
| 32 | 567 | > 2000 | 231 | 175 | 370 | O=C(O)c1ccc(/C=C/c2ccc(O)c(C(=O)O)c2)cc1O | – | – | – | – | – |
| 30 | 173 | > 1000 | 140 | 91 | 153 | O=C(O)c1cc(/C=C/c2ccccc2)cc(Br)c1O | – | – | – | – | – |
| – | – | > 2000 | – | – | 86 | O=C(O)c1cc(-c2ccccc2)cc(Cc2cc(-c3ccccc3)cc(C(=O)O)c2O)c1O | – | – | – | – | – |
| – | – | > 2000 | – | – | 234 | O=C(O)c1cc(Cc2cc(C(=O)O)c(O)c(-c3ccccc3)c2)cc(-c2ccccc2)c1O | – | – | – | – | – |
| > 1000 | – | – | – | – | – | Oc1ccc(/C=C/c2cc(O)cc(O)c2)cc1 [RESVERATROL] | – | – | – | – | – |
| 34 | 234 | > 2000 | 126 | 61 | 114 | O=C(O)c1cc(/C=C/c2ccccc2)ccc1O | – | – | – | – | – |
